# Data reported in patent publication US9114137B2, “Derivatives of pyrazolophenyl-benzenesulfonamide compounds and use thereof as antitumor agents” (Nerviano Medical Sciences S.R.L., priority 2010, dated 2015).
# Read-outs that look alike come from different tables or passages of the source.
# Experiments:
# Type in all cases: cell-based
# [1] = test system: human melanoma cells A375 (with a mutated B-RAF); assay: In vitro cell proliferation assay, A375; details: A-375
# Experimental: (§1) Exponentially growing human melanoma cells A375 (with a mutated B-RAF) and human melanoma cells Mewo (with wild-type B-Raf) were seeded and incubated at 37° C. in a humidified 5% CO2 atmosphere. After 24 hours, scalar doses of the compound were added to the medium and cells incubated for 72 hours. At the end of treatment, cells were washed and counted. Cell number was determined by a cellular adenosine triphosphate monitoring system. Cell proliferation was compared to control cells and the concentration inhibiting cell growth by 50% was calculated.
# [2] = test system: human melanoma cells Mewo (with wild-type B-Raf); assay: In vitro cell proliferation assay, Mewo; details: 72 hours incubation, cell number by ATP monitoring
# Experimental: as §1
# [3] = test system: p-MAPK (T202/Y204) in A375 human melanoma cells, having a mutated B-RAF; assay: p-MAPK (T202/Y204) ArrayScan assay; details: A-375, 1.5 or 2 hours treatment, cytoplasmatic p-MAPK fluorescence, read-out: Array Scan A375 IC50
# Experimental: A375 human melanoma cells, having a mutated B—RAF, were seeded in 384-well poly-lysine coated plates (Matrix) at a density of 1000 cells/well with appropriate medium supplemented with 10% FCS and incubated for 16-24 hours. Cells were treated for 1.5 or 2 hours with increasing doses of compounds (starting dose 10 μM, dilution factor 2.5). At the end of the treatment cells were fixed with p-formaldehyde 3.7% for 15-30 min, then washed twice with D-PBS (80 μl/well) and permeabilized with D-PBS containing 0.1% Triton X-100 and 1% BSA (Sigma-Aldrich) for 15 minutes at room temperature (staining solution). Anti-phospho-MAPK (T202/Y204) monoclonal antibody E10 (Cell Signaling, cat. #9106) diluted 1:100 was added in staining solution and incubated for 1 hour at 37° C. After removal of the primary antibody solution, the anti-mouse Cy™2-conjugated (Green) secondary antibody (Amersham) diluted 1:500 in staining solution containing 2 μg/ml DAPI was added. The plate was incubated for 1 hour at 37° C., washed twice and then red with Cellomics' ArrayScan VTI (4 fields/well, CytoNucTrans algorithm).
# The parameter “MEAN_RingAvgIntenCh2,” which measures the mean cytoplasmatic fluorescence intensity associated to p-MAPK staining, is reported as the final result.
# [4] = A375 human melanoma cells (mutated B-RAF), 72 hours incubation, cell number by ATP monitoring, read-out: Proliferation A375 IC50
Compound,"IC50 [1, 4] [nM]",IC50 [2] [nM],IC50 [3] [nM],"IC50 ([1]; Homo sapiens, value quoted in text for the reference compound, no unit or cell line printed, read-out: antiproliferative activity) [nM]"
"Nc1nccc(-c2cn(CCF)nc2-c2cccc(NS(=O)(=O)c3cc(F)ccc3F)c2F)n1 [Compound 11, N-{3-[4-(2-Amino-pyrimidin-4-yl)-1-(2-fluoro-ethyl)-1H-pyrazol-3-yl]-2-fluoro-phenyl}-2,5-difluoro-benzenesulfonamide]",17,> 10000,< 16,
"CC(C)n1cc(-c2ccnc(N)c2)c(-c2cccc(NS(=O)(=O)c3cc(F)ccc3F)c2F)n1 [Compound 12, N-{3-[4-(2-Amino-pyridin-4-yl)-1-isopropyl-1H-pyrazol-3-yl]-2-fluoro-phenyl}-2,5-difluoro-benzenesulfonamide]",17,> 10000,< 16,
"Nc1cc(-c2cn(CCF)nc2-c2cccc(NS(=O)(=O)c3cc(F)ccc3F)c2F)ccn1 [Compound 13, N-{3-[4-(2-Amino-pyridin-4-yl)-1-(2-fluoro-ethyl)-1H-pyrazol-3-yl]-2-fluoro-phenyl}-2,5-difluoro-benzenesulfonamide]",< 16,> 10000,< 16,
"Nc1cc(-c2cn(C3CCOCC3)nc2-c2cccc(NS(=O)(=O)c3cc(F)ccc3F)c2F)ccn1 [Compound 14, N-{3-[4-(2-Amino-pyridin-4-yl)-1-(tetrahydro-pyran-4-yl)-1H-pyrazol-3-yl]-2-fluoro-phenyl}-2,5-difluoro-benzenesulfonamide]",34,> 10000,< 16,
"Nc1cc(-c2cn(C3CCCC3)nc2-c2cccc(NS(=O)(=O)c3cc(F)ccc3F)c2F)ccn1 [Compound 17, N-{3-[4-(2-Amino-pyridin-4-yl)-1-cyclopentyl-1H-pyrazol-3-yl]-2-fluoro-phenyl}-2,5-difluoro-benzenesulfonamide]",28,> 10000,< 16,
"O=S(=O)(Nc1cccc(-c2nn(C3CCC(F)(F)CC3)cc2-c2ccncc2)c1F)c1cc(F)ccc1F [Compound 25, N-{3-[1-(4,4-difluorocyclohexyl)-4-(pyridin-4-yl)-1H-pyrazol-3-yl]-2-fluorophenyl}-2,5-difluorobenzenesulfonamide]",< 16,> 10000,< 16,
"CC(C)C(=O)Nc1cc(-c2cn(C3CCOCC3)nc2-c2cccc(NS(=O)(=O)c3cc(F)ccc3F)c2F)ccn1 [Compound 30, N-{4-[3-(3-{[(2,5-difluorophenyl)sulfonyl]amino}-2-fluorophenyl)-1-(tetrahydro-2H-pyran-4-yl)-1H-pyrazol-4-yl]pyridin-2-yl}-2-methylpropanamide]",< 16,> 10000,< 16,
"CC(=O)Nc1cc(-c2cn(C3CCN(C)CC3)nc2-c2cccc(NS(=O)(=O)c3cc(F)ccc3F)c2F)ccn1 [Compound 31, N-{4-[3-(3-{[(2,5-difluorophenyl)sulfonyl]amino}-2-fluorophenyl)-1-(1-methylpiperidin-4-yl)-1H-pyrazol-4-yl]pyridin-2-yl}acetamide]",< 16,> 10000,< 16,
"CCn1cc(-c2ccncc2)c(-c2cccc(NS(=O)(=O)c3cc(F)ccc3F)c2F)n1 [Ref. cpd, N-{3-[1-ethyl-4-(pyridin-4-yl)-1H-pyrazol-3-yl]-2-fluorophenyl}-2,5-difluorobenzenesulfonamide, reference compound]",48,> 10000,< 16,84

# Continued, values first:
"IC50 [1, 4] [nM]",IC50 [2] [nM],IC50 [3] [nM],"IC50 ([1]; Homo sapiens, value quoted in text for the reference compound, no unit or cell line printed, read-out: antiproliferative activity) [nM]",Compound
12,> 10000,< 16,,"O=S(=O)(Nc1cccc(-c2nn(C3CCN(C4CC4)CC3)cc2-c2ccncc2)c1F)c1cc(F)ccc1F [Compound 2, N-{3-[1-(1-Cyclopropyl-piperidin-4-yl)-4-pyridin-4-yl-1H-pyrazol-3-yl]-2-fluoro-phenyl}-2,5-difluoro-benzenesulfonamide]"
8,> 10000,< 16,,"CN1CCC(n2cc(-c3ccncc3)c(-c3cccc(NS(=O)(=O)c4cc(F)ccc4F)c3F)n2)CC1 [Compound 5, 2,5-Difluoro-N-{2-fluoro-3-[1-(1-methyl-piperidin-4-yl)-4-pyridin-4-yl-1H-pyrazol-3-yl]-phenyl}-benzenesulfonamide]"
< 16,> 10000,< 16,,"O=S(=O)(Nc1cccc(-c2nn(CCF)cc2-c2ccncc2)c1F)c1cc(F)ccc1F [Compound 7, 2,5-Difluoro-N-{2-fluoro-3-[1-(2-fluoro-ethyl)-4-pyridin-4-yl-1H-pyrazol-3-yl]-phenyl}-benzenesulfonamide]"
5,> 10000,< 16,,"CC(C)n1cc(-c2ccncc2)c(-c2cccc(NS(=O)(=O)c3cc(F)ccc3F)c2F)n1 [Compound 9, 2,5-Difluoro-N-[2-fluoro-3-(1-isopropyl-4-pyridin-4-yl-1H-pyrazol-3-yl)-phenyl]-benzenesulfonamide]"
3,> 10000,< 16,,"CC(C)n1cc(-c2ccnc(N)n2)c(-c2cccc(NS(=O)(=O)c3cc(F)ccc3F)c2F)n1 [Compound 10, N-{3-[4-(2-Amino-pyrimidin-4-yl)-1-isopropyl-1H-pyrazol-3-yl]-2-fluoro-phenyl}-2,5-difluoro-benzenesulfonamide]"
7,> 10000,< 16,,"CC(=O)Nc1cc(-c2cn(C3CCOCC3)nc2-c2cccc(NS(=O)(=O)c3cc(F)ccc3F)c2F)ccn1 [Compound 26, N-{4-[3-(3-{[(2,5-difluorophenyl)sulfonyl]amino}-2-fluorophenyl)-1-(tetrahydro-2H-pyran-4-yl)-1H-pyrazol-4-yl]pyridin-2-yl}acetamide]"
